Experiments:
SARS-CoV-2 main protease = molecular target: T1, SARS-CoV-2 main protease (Severe acute respiratory syndrome coronavirus 2, UniProt P0DTD1); settings: auto dock; cited from earlier work
T1 construct: also MProtease (SARS-CoV-2 main protease)

HIV = HIV in vitro tests (Table 1); type: cell-based; settings: HIV in vitro tests; read-out: EC50

SMILES | Dissociation Constant (SARS-CoV-2 main protease) | SMINA score (SARS-CoV-2 main protease) | Vina score (SARS-CoV-2 main protease) | EC50 (HIV)
CCN(CCO)CCCC(C)Nc1ccnc2cc(Cl)ccc12 (centres unmarked) [Hydroxychloroquine] | 2.3E−05 | −6.4 | −6.0 | –
CCN(CC)CCCC(C)Nc1ccnc2cc(Cl)ccc12 (centres unmarked) [Chloroquine] | 5.0E−05 | −5.4 | −5.9 | –
CC(C)(C)NC(=O)[C@@H]1C[C@@H]2CCCC[C@@H]2CN1C[C@@H](O)[C@H](Cc1ccccc1)NC(=O)[C@H](CC(N)=O)NC(=O)c1ccc2ccccc2n1 [Saquinovir] | – | – | – | 1.2 nM
CCOC(=O)C1=C[C@@H](OC(CC)CC)[C@H](NC(C)=O)[C@@H](N)C1 [Oseltamivir] | 1.8E−05 | −6.3 | −6.5 | –
CCOC(=O)c1c(CSc2ccccc2)n(C)c2cc(Br)c(O)c(CN(C)C)c12 [Umifenovir] | 2.2E−05 | −6.0 | −6.4 | –
CC(C)c1nc(CN(C)C(=O)N[C@H](C(=O)N[C@@H](Cc2ccccc2)C[C@H](O)[C@H](Cc2ccccc2)NC(=O)OCc2cncs2)C(C)C)cs1 [Ritonavir] | 2.5E−06 | −7.7 | −7.5 | –
CC(C)(C)NC(=O)[C@@H]1CN(Cc2cccnc2)CCN1C[C@@H](O)C[C@@H](Cc1ccccc1)C(=O)N[C@H]1c2ccccc2C[C@H]1O [Indinivir] | – | – | – | 5 nM
CC(C)c1nc(CN(C)C(=O)N[C@@H](CCN2CCOCC2)C(=O)N[C@H](CC[C@H](Cc2ccccc2)NC(=O)OCc2cncs2)Cc2ccccc2)cs1 [Cobicistat] | 5.7E−06 | −7.2 | −7.2 | –
